ChEMBL document CHEMBL5226341, “Discovery of a Potent FLT3 Inhibitor (LT-850-166) with the Capacity of Overcoming a Variety of FLT3 Mutations” (J Med Chem, 2021)

How the values were obtained:
[1] = system: MV4-11; assay: Antiproliferative activity against human MV4-11 cells assessed as inhibition of cell growth incubated for 72 hrs by CellTiterGlo luminescent assay; format: functional, cell-based; details: MV4-11, 72 h
[2] = molecular target: Receptor-type tyrosine-protein kinase FLT3 (Homo sapiens, UniProt P36888, ITD); assay: Inhibition of human FLT3-ITD mutant preincubated with enzyme for 20 mins followed by [gamma-33P]ATP addition and measured after 120 mins by filter binding method
Receptor-type tyrosine-protein kinase FLT3, sequence (P36888 whole entry, looked up, stated change not applied): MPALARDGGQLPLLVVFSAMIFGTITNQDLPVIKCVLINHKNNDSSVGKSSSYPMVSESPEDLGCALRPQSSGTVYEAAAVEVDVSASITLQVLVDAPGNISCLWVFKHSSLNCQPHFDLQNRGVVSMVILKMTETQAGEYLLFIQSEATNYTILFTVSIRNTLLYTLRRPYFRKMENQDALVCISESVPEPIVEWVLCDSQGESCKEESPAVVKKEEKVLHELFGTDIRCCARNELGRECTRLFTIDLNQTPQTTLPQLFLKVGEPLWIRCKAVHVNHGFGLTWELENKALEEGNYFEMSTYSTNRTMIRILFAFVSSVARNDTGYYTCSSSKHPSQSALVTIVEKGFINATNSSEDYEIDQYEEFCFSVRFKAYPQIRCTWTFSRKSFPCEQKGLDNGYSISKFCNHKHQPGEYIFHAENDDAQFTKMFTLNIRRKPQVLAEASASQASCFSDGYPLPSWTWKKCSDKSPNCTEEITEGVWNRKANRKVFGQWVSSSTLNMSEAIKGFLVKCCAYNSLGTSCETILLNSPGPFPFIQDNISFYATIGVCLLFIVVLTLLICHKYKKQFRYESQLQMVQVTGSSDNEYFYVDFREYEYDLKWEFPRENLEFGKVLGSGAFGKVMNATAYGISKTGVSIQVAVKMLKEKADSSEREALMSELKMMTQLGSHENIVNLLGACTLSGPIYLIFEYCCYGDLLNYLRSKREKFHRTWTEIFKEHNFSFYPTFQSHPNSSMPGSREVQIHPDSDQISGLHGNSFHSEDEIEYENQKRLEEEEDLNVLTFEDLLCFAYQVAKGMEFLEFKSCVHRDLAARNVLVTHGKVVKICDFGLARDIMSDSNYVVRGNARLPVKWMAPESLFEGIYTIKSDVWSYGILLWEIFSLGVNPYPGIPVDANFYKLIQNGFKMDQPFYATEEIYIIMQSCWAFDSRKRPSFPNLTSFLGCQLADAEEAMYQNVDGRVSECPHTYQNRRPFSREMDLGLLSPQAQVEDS

[3] = system: BaF3; assay: Antiproliferative activity against mouse BaF3 cells harboring FLT3-ITD-F691L mutant assessed as residual cell viability at 0.1 uM incubated for 72 hrs by CellTiterGlo luminescent assay; format: functional
[4] = system: BaF3; assay: Antiproliferative activity against mouse BaF3 cells harboring FLT3-ITD-F691L mutant assessed as reduction in cell viability incubated for 72 hrs by CellTiterGlo luminescent assay; format: functional, cell-based; details: BaF3, 72 h
[5] = system: BaF3; assay: Antiproliferative activity against mouse BaF3 cells harboring FLT3-ITD-F691L mutant assessed as residual cell viability at 10 nM incubated for 72 hrs by CellTiterGlo luminescent assay; format: functional
[6] = system: BaF3; assay: Antiproliferative activity against mouse BaF3 cells harboring FLT3-ITD-F691L mutant assessed as residual cell viability at 50 nM incubated for 72 hrs by CellTiterGlo luminescent assay; format: functional
[7] = system: BaF3; format: functional, cell-based; details: Mus musculus, BaF3, 72 h
[8] = system: BaF3; assay: Antiproliferative activity against mouse BaF3 cells harboring FLT3-ITD-N676D mutant assessed as reduction in cell viability measured after 72 hrs by CellTiterGlo luminescent assay; format: functional, cell-based; details: BaF3, 72 h
[9] = Antiproliferative activity against mouse BaF3 cells assessed as reduction in cell viability measured after 72 hrs by CellTiterGlo luminescent assay; format: toxicity, cell-based
[10] = system: BaF3; assay: Antiproliferative activity against mouse BaF3 cells harboring FLT3-ITD mutant assessed as reduction in cell viability measured after 72 hrs by CellTiterGlo luminescent assay; format: functional, cell-based; details: BaF3, 72 h
[11] = system: BaF3; assay: Antiproliferative activity against mouse BaF3 cells harboring FLT3-ITD-Y842H mutant assessed as reduction in cell viability measured after 72 hrs by CellTiterGlo luminescent assay; format: functional, cell-based; details: BaF3, 72 h
[12] = system: BaF3; assay: cells; details: Mus musculus, BaF3, 72 h
Description: Antiproliferative activity against mouse BaF3 cells harboring FLT3-ITD-D835V mutant assessed as reduction in cell viability measured after 72 hrs by CellTiterGlo luminescent assay

[13] = system: MV4-11; assay: Antitumor activity against human MV4-11 cells xenografted in BALB/c mouse assessed as inhibition rate of tumor weight at 30 mg/kg, iv QD for 21 days by vernier caliper analysis; format: functional; details: MV4-11, 504 h, time 21 day
[14] = system: MV4-11; assay: Antitumor activity against human MV4-11 cells xenografted in BALB/c mouse assessed as tumor growth inhibition at 30 mg/kg, iv QD for 21 days by vernier caliper analysis; format: functional; details: MV4-11, 504 h, time 21 day, read-out: TGI
[15] = Toxicity in BALB/c mouse xenografted with human MV4-11 cells assessed as mortality at 30 mg/kg, iv QD for 10 days; format: organism-based; details: in vivo, 240 h, time 10 day

IC50 [1] [nM]	IC50 [2] [nM]	Compound	Activity [3] [%]	Activity [5] [%]	further results
55.6	1.42	CN1CCC(Nc2ccc(C(=O)Nc3cc(-c4ccc5ncn(Cc6ccsc6)c5c4)[nH]n3)cc2)CC1	108.58		
6.38	1.71	CN1CCN(Cc2ccc(NC(=O)c3n[nH]cc3Nc3ncnc4[nH]ccc34)cc2)CC1			IC50 [4]: 7.65 nM
	16	CN1CCC(Nc2ccc(C(=O)Nc3cc(-c4ccc5ncn(Cc6ccncc6)c5c4)[nH]n3)cc2)CC1			
6.37		COCCNc1ccc(C(=O)Nc2cc(-c3ccc4ncn(Cc5c(Cl)cccc5Cl)c4c3)[nH]n2)cc1		84.97	
75.6	2.06	CN1CCC(Nc2ccc(C(=O)Nc3cc(-c4ccc5ccn(Cc6ccccc6)c5c4)[nH]n3)cc2)CC1			
1.1		CC(=O)N1CCN(c2ccc(C(=O)Nc3cc(-c4ccc5ncn(Cc6c(Cl)cccc6Cl)c5c4)[nH]n3)cc2)CC1		103.45	
23.6	4.58	CN1CCC(Nc2ccc(C(=O)Nc3cc(-c4ccc5ncn(Cc6ccc(F)cc6)c5c4)[nH]n3)cc2)CC1	100.93		
12.5		CCN1CCN(c2ccc(C(=O)Nc3cc(-c4ccc5ncn(Cc6cccc(F)c6Cl)c5c4)[nH]n3)cc2)CC1		101.05	Activity [6]: 47.53%
	3.58	CN1CCC(Nc2ccc(C(=O)Nc3cc(-c4ccc5ncn(C6CC6)c5c4)[nH]n3)cc2)CC1			
	23.7	CN1CCC(Nc2ccc(C(=O)Nc3cc(-c4cccc5c4ncn5C)[nH]n3)cc2)CC1			
	5.73	CN1CCC(Nc2ccc(C(=O)Nc3cc(-c4ccc5ncn(C6CCOCC6)c5c4)[nH]n3)cc2)CC1			
0.77		CN1CCC(Nc2ccc(C(=O)Nc3cc(-c4ccc5ncn(Cc6c(Cl)cccc6Cl)c5c4)[nH]n3)cc2)CC1		104.29	
	213	CN1CCC(Nc2ccc(C(=O)Nc3cc(-c4cccc5ncn(C)c45)[nH]n3)cc2)CC1			
	1.84	CN1CCC(Nc2ccc(C(=O)Nc3cc(-c4ccc5ncn(Cc6ccccc6)c5c4)[nH]n3)cc2)CC1	96.22		
18.5	3.22	CN1CCC(Nc2ccc(C(=O)Nc3cc(-c4ccc5ncn(Cc6cccc(F)c6)c5c4)[nH]n3)cc2)CC1	97.08		
90.6	8.34	CN1CCC(Nc2ccc(C(=O)Nc3cc(-c4ccc5ncn(Cc6ccccc6F)c5c4)[nH]n3)cc2)CC1	99.79		
3.61		O=C(Nc1cc(-c2ccc3ncn(Cc4c(Cl)cccc4Cl)c3c2)[nH]n1)c1ccc(N2CCOCC2)cc1		109.68	
2.26		O=C(Nc1cc(-c2ccc3ncn(Cc4c(Cl)cccc4Cl)c3c2)[nH]n1)c1ccc(N2CC3CC2CN3)cc1 (stereo not given)		103.48	
		CC(C)(C)c1cc(NC(=O)Nc2ccc(-c3cn4c(n3)sc3cc(OCCN5CCOCC5)ccc34)cc2)no1 [QUIZARTINIB]			IC50 [7]: 27.1 nM; IC50 [8]: 5.41 nM; IC50 at 72 h [9]: > 1000 nM; IC50 [4]: 133 nM; IC50 [10]: 3.52 nM; IC50 [11]: 15 nM; IC50 [12]: 49.6 nM
99.3	11.1	CN1CCC(Nc2ccc(C(=O)Nc3cc(-c4ccc5ncn(Cc6ccccc6)c5c4)[nH]n3)c(F)c2)CC1			
3.14		CN(C)CCNc1ccc(C(=O)Nc2cc(-c3ccc4ncn(Cc5c(Cl)cccc5Cl)c4c3)[nH]n2)cc1		101.71	
2.61		CCN1CCN(c2ccc(C(=O)Nc3cc(-c4ccc5ncn(Cc6c(F)cccc6Cl)c5c4)[nH]n3)cc2)CC1		101.37	Activity [6]: 21.63%
30		CN1CCN(c2ccc(C(=O)Nc3cc(-c4ccc5ncn(Cc6ccccc6Cl)c5c4)[nH]n3)cc2)CC1	20.29		IC50 [4]: 82.8 nM
32.6	3.77	CN1CCC(Nc2ccc(C(=O)Nc3cc(-c4ccc5ncn(Cc6ccccc6)c5c4)[nH]n3)cc2F)CC1	100.57		
68.2	1.14	CN1CCC(Nc2ccc(C(=O)Nc3cc(-c4ccc5ncn(C6CCCC6)c5c4)[nH]n3)cc2)CC1	97.57		
219	12.9	O=C(Nc1cc(-c2ccc3ncn(Cc4ccccc4)c3c2)[nH]n1)c1ccccc1			
66	0.94	CN1CCC(Nc2ccc(C(=O)Nc3cc(-c4ccc5ncn(Cc6cccc(Cl)c6)c5c4)[nH]n3)cc2)CC1	100.75		

IC50 [1] [nM]	IC50 [2] [nM]	Compound	Activity [3] [%]	Activity [5] [%]	further results
29.7	0.94	Cc1ccccc1Cn1cnc2ccc(-c3cc(NC(=O)c4ccc(NC5CCN(C)CC5)cc4)n[nH]3)cc21	86.49		
33.6	0.7	COc1ccccc1Cn1cnc2ccc(-c3cc(NC(=O)c4ccc(NC5CCN(C)CC5)cc4)n[nH]3)cc21	85.88		
12.6		CCN1CCN(c2ccc(C(=O)Nc3cc(-c4ccc5ncn(Cc6cc(F)ccc6Cl)c5c4)[nH]n3)cc2)CC1		107.7	Activity [6]: 49.36%
2.78		CN(C)CCN(C)c1ccc(C(=O)Nc2cc(-c3ccc4ncn(Cc5c(Cl)cccc5Cl)c4c3)[nH]n2)cc1		102.83	
12.4		CCN1CCN(c2ccc(C(=O)Nc3cc(-c4ccc5ncn(Cc6ccccc6Cl)c5c4)[nH]n3)cc2)CC1	1.72	90.16	Activity [6]: 19.95%; IC50 [4]: 29.2 nM
	4.96	CN1CCC(Nc2ccc(C(=O)Nc3cc(-c4ccc5ncn(-c6ccccc6)c5c4)[nH]n3)cc2)CC1			
	10.3	CN1CCC(Nc2ccc(C(=O)Nc3cc(-c4ccc5ncccc5c4)[nH]n3)cc2)CC1			
219	3.59	CN1CCC(Nc2ccc(C(=O)Nc3cc(-c4ccc5ncn(Cc6ccc(Cl)cc6)c5c4)[nH]n3)cc2)CC1	101.73		
4.85		CCN1CCN(c2ccc(C(=O)Nc3cc(-c4ccc5ncn(Cc6c(C)cccc6C)c5c4)[nH]n3)cc2)CC1		103.84	Activity [6]: 4.57%
	3.88	CN1CCC(Nc2ccc(C(=O)Nc3cc(-c4ccc5ncn([C@H]6CC[C@H](N)CC6)c5c4)[nH]n3)cc2)CC1			
1.38		CN1CCCN(c2ccc(C(=O)Nc3cc(-c4ccc5ncn(Cc6c(Cl)cccc6Cl)c5c4)[nH]n3)cc2)CC1		107.43	
25.4	0.85	CN1CCC(Nc2ccc(C(=O)Nc3cc(-c4ccc5ncn(Cc6ccccc6Cl)c5c4)[nH]n3)cc2)CC1	40.17		
		Nc1ccn([C@@H]2O[C@H](CO)[C@@H](O)[C@@H]2O)c(=O)n1 [CYTARABINE]			inhibition in vivo at 30 mg/kg [13]: 50.6%; inhibition in vivo at 30 mg/kg [14]: 66%; Activity [15]: Toxic
	7.59	CN1CCC(Nc2ccc(C(=O)Nc3cc(-c4ccc5ncn(C)c5c4)[nH]n3)cc2)CC1			
	14.1	CN1CCC(Nc2ccc(C(=O)Nc3cc(-c4ccc5nccnc5c4)[nH]n3)cc2)CC1			
9.02		O=C(Nc1cc(-c2ccc3ncn(Cc4ccccc4Cl)c3c2)[nH]n1)c1ccc(N2CCOCC2)cc1	16.59		IC50 [4]: 65.2 nM
1700	397	CN1CCC(C(=O)Nc2cc(-c3ccc4ncn(Cc5ccccc5)c4c3)[nH]n2)CC1			
48.2	3.72	Cc1cc(C(=O)Nc2cc(-c3ccc4ncn(Cc5ccccc5)c4c3)[nH]n2)ccc1NC1CCN(C)CC1	99.36		
2.88		O=C(Nc1cc(-c2ccc3ncn(Cc4c(Cl)cccc4Cl)c3c2)[nH]n1)c1ccc(N2CC3CC2CO3)cc1 (stereo not given)		88.75	
13.8		O=C(Nc1cc(-c2ccc3ncn(Cc4ccccc4Cl)c3c2)[nH]n1)c1ccc(N2CCNCC2)cc1	14.55		IC50 [4]: 60.9 nM
2.64		CN1CCN(c2ccc(C(=O)Nc3cc(-c4ccc5ncn(Cc6c(Cl)cccc6Cl)c5c4)[nH]n3)cc2)CC1=O		104.57	
	7.65	CC(C)n1cnc2ccc(-c3cc(NC(=O)c4ccc(NC5CCN(C)CC5)cc4)n[nH]3)cc21			
12.6		CCN1CCN(c2ncc(C(=O)Nc3cc(-c4ccc5ncn(Cc6c(Cl)cccc6Cl)c5c4)[nH]n3)cn2)CC1		111.76	
3.25		CCN1CCN(c2ccc(C(=O)Nc3cc(-c4ccc5ncn(Cc6c(Cl)cccc6Cl)c5c4)[nH]n3)cn2)CC1		102.56	
	3.86	CN1CCC(Nc2ccc(C(=O)Nc3cc(-c4ccc5ncn(CC6CCCCC6)c5c4)[nH]n3)cc2)CC1			
58.4	4.96	CN1CCC(Nc2ccc(C(=O)Nc3cc(-c4ccc5c(c4)ncn5Cc4ccccc4)[nH]n3)cc2)CC1			
86.2	9.06	Cc1cc(NC2CCN(C)CC2)ccc1C(=O)Nc1cc(-c2ccc3ncn(Cc4ccccc4)c3c2)[nH]n1			
